# Biological target: T1, CYP2C9 (Homo sapiens, UniProt P11712)
# T1 construct: Human liver microsome (20 mg protein/mL, 5 μL, Xenotech LLC, purchased from Lenexa KS); tissue Xenotech LLC; host or cells: human liver microsome
# Assay: CYP inhibitory test using human liver microsome
# Format: in vitro ADME
# Settings: model substrate diclofenac, 37° C. 10 min, read-out: CYP2C9 inhibition IC50
# Method: Human liver microsome (20 mg protein/mL, 5 μL, Xenotech LLC, purchased from Lenexa KS) was suspended in 100 mM potassium phosphate buffer (70 μL, pH 7.4), mixed with a solution (0.5 μL) of the Example compound dissolved in DMSO and preincubated at 37° C. for 5 min. NADPH producing system coenzyme solution (β-nicotinamide adenine dinucleotide phosphate: 5.2 mM, D-glucose-6-phosphate: 13.2 mM, magnesium chloride: 13.2 mM, glucose-6-phosphate dehydrogenase: 1.8 U/mL) 25 μL, and a model substrate (CYP3A4: midazolam 1 mM, CYP2D6: bufuralol 1 mM, CYP2C9: diclofenac 2 mM) 0.5 μL dissolved in DMSO were added to start the reaction. After incubation at 37° C. for 10 min., acetonitrile (200 μL) containing an internal standard substance (propranolol 1 μM) was added and the mixture was centrifuged (room temperature, 3000 rpm, 20 min). The amount of the metabolite produced from each model substrate in the supernatant was measured by high performance liquid chromatography/mass spectrometry (LC/MS/MS) and each CYP enzyme activity was determined. The concentration showing 50% inhibition (IC50) was calculated relative to the enzyme activity without addition of Example compound (DMSO 0.5 μL added) as 100%.
# T1 sequence (P11712 whole entry): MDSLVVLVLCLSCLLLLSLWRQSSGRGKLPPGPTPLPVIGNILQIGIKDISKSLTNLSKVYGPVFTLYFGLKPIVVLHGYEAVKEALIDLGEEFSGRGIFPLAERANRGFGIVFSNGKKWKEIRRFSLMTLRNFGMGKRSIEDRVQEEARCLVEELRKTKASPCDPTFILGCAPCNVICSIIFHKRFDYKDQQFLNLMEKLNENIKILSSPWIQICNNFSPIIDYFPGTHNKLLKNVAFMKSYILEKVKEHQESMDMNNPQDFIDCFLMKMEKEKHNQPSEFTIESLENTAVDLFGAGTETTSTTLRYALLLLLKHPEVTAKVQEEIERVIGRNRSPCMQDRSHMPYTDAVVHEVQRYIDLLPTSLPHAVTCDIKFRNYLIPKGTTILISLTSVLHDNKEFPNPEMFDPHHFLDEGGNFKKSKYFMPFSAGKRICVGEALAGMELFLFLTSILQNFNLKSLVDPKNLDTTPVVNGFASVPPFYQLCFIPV
row,Compound,IC50 [µM]
1,"CCNS(=O)(=O)c1ccc2c(c1)N(C(=O)c1cc(Cl)c(O)c(Cl)c1)CCO2 [Example 34, 4-(3,5-dichloro-4-hydroxybenzoyl)-3,4-dihydro-2H-benzo[1,4]oxazine-6-sulfonic acid ethylamide]",11
2,"O=C(c1ccc([N+](=O)[O-])cc1)N1CCOc2ccccc21 [Example 43, (2,3-dihydrobenzo[1,4]oxazin-4-yl)-(4-nitrophenyl)-methanone]",> 50
3,"O=C(c1cc(Br)c(O)c(Br)c1)N1CCOc2ccc([N+](=O)[O-])cc21 [Example 69, (3,5-dibromo-4-hydroxyphenyl)-(6-nitro-2,3-dihydrobenzo[1,4]oxazin-4-yl)-methanone]",21
4,"COC(=O)c1ccc2c(c1)OCCN2C(=O)c1cc(Cl)c(O)c(Cl)c1 [Example 59, methyl 4-(3,5-dichloro-4-hydroxybenzoyl)-3,4-dihydro-2H-benzo[1,4]oxazine-7-carboxylate]",8
5,"O=C(c1cc(Br)c(O)c(Br)c1)N1CCOc2ccc3ccccc3c21 [Example 80, (3,5-dibromo-4-hydroxyphenyl)-(2,3-dihydronaphtho[2,1-b][1,4]oxazin-1-yl)-methanone]",5
6,"CN(C)S(=O)(=O)c1ccc2c(c1)N(C(=O)c1cc(Cl)c(O)c(Cl)c1)CCO2 [Example 35, 4-(3,5-dichloro-4-hydroxybenzoyl)-3,4-dihydro-2H-benzo[1,4]oxazine-6-sulfonic acid dimethylamide]",14
7,"Cc1ccc2c(c1)OCCN2C(=O)c1cc(Cl)c(O)c(Cl)c1 [Example 13, (3,5-dichloro-4-hydroxyphenyl)-(7-methyl-2,3-dihydrobenzo[1,4]oxazin-4-yl)-methanone]",18
8,"COc1ccc2c(c1)N(C(=O)c1cc(Cl)c(O)c(Cl)c1)CCO2 [Example 17, (3,5-dichloro-4-hydroxyphenyl)-(6-methoxy-2,3-dihydrobenzo[1,4]oxazin-4-yl)-methanone]",33
9,"CC(C)(C)c1ccc2c(c1)N(C(=O)c1cc(Cl)c(O)c(Cl)c1)CCO2 [Example 23, (6-tert-butyl-2,3-dihydrobenzo[1,4]oxazin-4-yl)-(3,5-dichloro-4-hydroxyphenyl)-methanone]",19
10,"COC(=O)c1ccc2c(c1)N(C(=O)c1cc(Cl)c(O)c(Cl)c1)CCO2 [Example 55, methyl 4-(3,5-dichloro-4-hydroxybenzoyl)-3,4-dihydro-2H-benzo[1,4]oxazine-6-carboxylate]",19

# Continued, values first:
row,IC50 [µM],Compound
1,6,"Cc1cccc2c1OCCN2C(=O)c1cc(Cl)c(O)c(Cl)c1 [Example 15, (3,5-dichloro-4-hydroxyphenyl)-(8-methyl-2,3-dihydrobenzo[1,4]oxazin-4-yl)-methanone]"
2,18,"O=C(c1cc(Cl)c(O)c(Cl)c1)N1CCc2ccccc21 [Example 77, (3,5-dichloro-4-hydroxyphenyl)-(2,3-dihydroindol-1-yl)-methanone]"
3,> 50,"O=C(O)COc1c(Cl)cc(C(=O)N2CCOc3ccccc32)cc1Cl [Example 92, [2,6-dichloro-4-(2,3-dihydrobenzo[1,4]oxazine-4-carbonyl)phenoxy]acetic acid]"
4,21,"O=C(c1cc(Cl)c(O)c(Cl)c1)N1CCCCc2ccccc21 [Example 27, (3,5-dichloro-4-hydroxyphenyl)-(2,3,4,5-tetrahydrobenzo[b]azepin-1-yl)-methanone]"
5,> 50,"O=C1COc2ccccc2N1C(=O)c1cc(Cl)c(O)c(Cl)c1 [Example 24, 4-(3,5-dichloro-4-hydroxybenzoyl)-4H-benzo[1,4]oxazin-3-one]"
6,> 50,"COc1c(Cl)cc(C(=O)N2CCOc3ccccc32)cc1Cl [Example 86, (3,5-dichloro-4-methoxyphenyl)-(2,3-dihydrobenzo[1,4]oxazin-4-yl)-methanone]"
7,> 50,"O=C(O)c1ccc2c(c1)OCCN2C(=O)c1cc(Cl)c(O)c(Cl)c1 [Example 60, 4-(3,5-dichloro-4-hydroxybenzoyl)-3,4-dihydro-2H-benzo[1,4]oxazine-7-carboxylic acid]"

# Source: patent publication US20070010670A1, “Nitrogen-containing fused ring compounds and use thereof” (Japan Tobacco Inc., priority 2004, published 2007)
